# Tested on: MOLT-4
# Assay: Cell viability assay (tetrazolium-based MTS) in MOLT4 cells
# Settings: 48 h incubation
# Method: Cancer cells from acute lymphoblastic leukemia (MOLT4) were incubated with increasing concentrations of compounds of Examples 1-9 for 48 h. Cell viability was measured by tetrazolium-based MTS assay. 5×10^4 to 1×10^5 suspension cells or 3×10^3 to 5×10^3 adherent cells were seeded and treated in 96-well plates for 48 h. The EC50 values of individual agents were calculated with GraphPad Prism.
# [1] = Homo sapiens, MOLT-4, MOLT4 acute lymphoblastic leukemia cells
# [2] = MOLT4 acute lymphoblastic leukemia cells
SMILES,EC50 [1],EC50 [2]
"Cc1ncsc1-c1ccc([C@H](CC(=O)NCCCNC(=O)c2nc(N3CCc4cccc(C(=O)Nc5nc6ccccc6s5)c4C3)ccc2-c2cnn(CC34CC5CC(CC(C5)C3)C4)c2C)NC(=O)[C@@H]2C[C@@H](O)CN2C(=O)[C@@H](NC(=O)C2(C#N)CC2)C(C)(C)C)cc1 [degrader #21, 2-(5-(1-(adamantan-1-ylmethyl)-5-methyl-1H-pyrazol-4-yl)-6-((3-((S)-3-((2S,4R)-1-((S)-2-(1-cyanocyclopropane-1-carboxamido)-3,3-dimethylbutanoyl)-4-hydroxypyrrolidine-2-carboxamido)-3-(4-(4-methylthiazol-5-yl)phenyl)propanamido)propyl)carbamoyl)pyridin-2-yl)-N-(benzo[d]thiazol-2-yl)-1,2,3,4-tetrahydroisoquinoline-8-carboxamide]",100 to 1000 nM,
"Cc1ncsc1-c1ccc([C@H](CC(=O)NCCNC(=O)c2nc(N3CCc4cccc(C(=O)Nc5nc6ccccc6s5)c4C3)ccc2-c2cnn(CC34CC5CC(CC(C5)C3)C4)c2C)NC(=O)[C@@H]2C[C@@H](O)CN2C(=O)[C@@H](NC(=O)C2(C#N)CC2)C(C)(C)C)cc1 [degrader #20, 2-(5-(1-(adamantan-1-ylmethyl)-5-methyl-1H-pyrazol-4-yl)-6-((2-((S)-3-((2S,4R)-1-((S)-2-(1-cyanocyclopropane-1-carboxamido)-3,3-dimethylbutanoyl)-4-hydroxypyrrolidine-2-carboxamido)-3-(4-(4-methylthiazol-5-yl)phenyl)propanamido)ethyl)carbamoyl)pyridin-2-yl)-N-(benzo[d]thiazol-2-yl)-1,2,3,4-tetrahydroisoquinoline-8-carboxamide]",10 to 100 nM,
"Cc1c(-c2ccc(N3CCc4cccc(C(=O)Nc5nc6ccccc6s5)c4C3)nc2C(=O)O)cnn1CC12CC3CC(C1)CC(C(=O)NCCCCCCCCCCNc1cccc4c1C(=O)N(C1CCC(=O)NC1=O)C4=O)(C3)C2 (centres unmarked) [degrader #37, 6-(8-(benzo[d]thiazol-2-ylcarbamoyl)-3,4-dihydroisoquinolin-2(1H)-yl)-3-(1-(((1r,3r)-3-((10-((2-(2,6-dioxopiperidin-3-yl)-1,3-dioxoisoindolin-4-yl)amino)decyl)carbamoyl)adamantan-1-yl)methyl)-5-methyl-1H-pyrazol-4-yl)picolinic acid]",,10 to 100 nM
"Cc1ncsc1-c1ccc([C@H](C)NC(=O)[C@@H]2C[C@@H](O)CN2C(=O)[C@@H](NC(=O)CCCCCCNC(=O)C23CC4CC(CC(Cn5ncc(-c6ccc(N7CCc8cccc(C(=O)Nc9nc%10ccccc%10s9)c8C7)nc6C(=O)O)c5C)(C4)C2)C3)C(C)(C)C)cc1 [degrader #43, 6-(8-(benzo[d]thiazol-2-ylcarbamoyl)-3,4-dihydroisoquinolin-2(1H)-yl)-3-(1-(((1S,3r)-3-((7-(((S)-1-((2S,4R)-4-hydroxy-2-(((S)-1-(4-(4-methylthiazol-5-yl)phenyl)ethyl)carbamoyl)pyrrolidin-1-yl)-3,3-dimethyl-1-oxobutan-2-yl)amino)-7-oxoheptyl)carbamoyl)adamantan-1-yl)methyl)-5-methyl-1H-pyrazol-4-yl)picolinic acid]",,100 to 1000 nM
"Cc1ncsc1-c1ccc([C@H](C)NC(=O)[C@@H]2C[C@@H](O)CN2C(=O)[C@@H](NC(=O)CCCCCS(=O)(=O)NC(=O)c2nc(N3CCc4cccc(C(=O)Nc5nc6ccccc6s5)c4C3)ccc2-c2cnn(CC34CC5CC(CC(C5)C3)C4)c2C)C(C)(C)C)cc1 [degrader #11, 2-(5-(1-(adamantan-1-ylmethyl)-5-methyl-1H-pyrazol-4-yl)-6-(((6-(((S)-1-((2S,4R)-4-hydroxy-2-(((S)-1-(4-(4-methylthiazol-5-yl)phenyl)ethyl)carbamoyl)pyrrolidin-1-yl)-3,3-dimethyl-1-oxobutan-2-yl)amino)-6-oxohexyl)sulfonyl)carbamoyl)pyridin-2-yl)-N-(benzo[d]thiazol-2-yl)-1,2,3,4-tetrahydroisoquinoline-8-carboxamide]",< 10 nM,
"Cc1ncsc1-c1ccc([C@H](C)NC(=O)[C@@H]2C[C@@H](O)CN2C(=O)[C@@H](NC(=O)CCCCCCCNC(=O)c2nc(N3CCc4cccc(C(=O)Nc5nc6ccccc6s5)c4C3)ccc2-c2cnn(CC34CC5CC(CC(C5)C3)C4)c2C)C(C)(C)C)cc1 [degrader #19, 2-(5-(1-(adamantan-1-ylmethyl)-5-methyl-1H-pyrazol-4-yl)-6-((8-(((S)-1-((2S,4R)-4-hydroxy-2-(((S)-1-(4-(4-methylthiazol-5-yl)phenyl)ethyl)carbamoyl)pyrrolidin-1-yl)-3,3-dimethyl-1-oxobutan-2-yl)amino)-8-oxooctyl)carbamoyl)pyridin-2-yl)-N-(benzo[d]thiazol-2-yl)-1,2,3,4-tetrahydroisoquinoline-8-carboxamide]",10 to 100 nM,
"Cc1c(-c2ccc(N3CCc4cccc(C(=O)Nc5nc6ccccc6s5)c4C3)nc2C(=O)O)cnn1CC12CC3CC(C1)CC(C(=O)NCCCCCCNc1cccc4c1C(=O)N(C1CCC(=O)NC1=O)C4=O)(C3)C2 (centres unmarked) [degrader #35, 6-(8-(benzo[d]thiazol-2-ylcarbamoyl)-3,4-dihydroisoquinolin-2(1H)-yl)-3-(1-(((1r,3r)-3-((6-((2-(2,6-dioxopiperidin-3-yl)-1,3-dioxoisoindolin-4-yl)amino)hexyl)carbamoyl)adamantan-1-yl)methyl)-5-methyl-1H-pyrazol-4-yl)picolinic acid]",,10 to 100 nM
"Cc1ncsc1-c1ccc([C@H](CC(=O)NCCCCNC(=O)c2nc(N3CCc4cccc(C(=O)Nc5nc6ccccc6s5)c4C3)ccc2-c2cnn(CC34CC5CC(CC(C5)C3)C4)c2C)NC(=O)[C@@H]2C[C@@H](O)CN2C(=O)[C@@H](NC(=O)C2(C#N)CC2)C(C)(C)C)cc1 [degrader #22, 2-(5-(1-(adamantan-1-ylmethyl)-5-methyl-1H-pyrazol-4-yl)-6-((4-((S)-3-((2S,4R)-1-((S)-2-(1-cyanocyclopropane-1-carboxamido)-3,3-dimethylbutanoyl)-4-hydroxypyrrolidine-2-carboxamido)-3-(4-(4-methylthiazol-5-yl)phenyl)propanamido)butyl)carbamoyl)pyridin-2-yl)-N-(benzo[d]thiazol-2-yl)-1,2,3,4-tetrahydroisoquinoline-8-carboxamide]",10 to 100 nM,
"Cc1c(-c2ccc(N3CCc4cccc(C(=O)Nc5nc6ccccc6s5)c4C3)nc2C(=O)NCCCCCCNc2cccc3c2C(=O)N(C2CCC(=O)NC2=O)C3=O)cnn1CC12CC3CC(CC(C3)C1)C2 (centres unmarked) [degrader #4, 2-(5-(1-(adamantan-1-ylmethyl)-5-methyl-1H-pyrazol-4-yl)-6-((6-((2-(2,6-dioxopiperidin-3-yl)-1,3-dioxoisoindolin-4-yl)amino)hexyl)carbamoyl)pyridin-2-yl)-N-(benzo[d]thiazol-2-yl)-1,2,3,4-tetrahydroisoquinoline-8-carboxamide]",100 to 1000 nM,
"Cc1c(-c2ccc(N3CCc4cccc(C(=O)Nc5nc6ccccc6s5)c4C3)nc2C(=O)O)cnn1CC12CC3CC(C1)CC(C(=O)NCCCCNc1cccc4c1C(=O)N(C1CCC(=O)NC1=O)C4=O)(C3)C2 (centres unmarked) [degrader #34, 6-(8-(benzo[d]thiazol-2-ylcarbamoyl)-3,4-dihydroisoquinolin-2(1H)-yl)-3-(1-(((1r,3r)-3-((4-((2-(2,6-dioxopiperidin-3-yl)-1,3-dioxoisoindolin-4-yl)amino)butyl)carbamoyl)adamantan-1-yl)methyl)-5-methyl-1H-pyrazol-4-yl)picolinic acid]",,10 to 100 nM
"Cc1c(-c2ccc(N3CCc4cccc(C(=O)Nc5nc6ccccc6s5)c4C3)nc2C(=O)O)cnn1CC12CC3CC(C1)CC(C(=O)NCCCCCCCCNc1cccc4c1C(=O)N(C1CCC(=O)NC1=O)C4=O)(C3)C2 (centres unmarked) [degrader #36, 6-(8-(benzo[d]thiazol-2-ylcarbamoyl)-3,4-dihydroisoquinolin-2(1H)-yl)-3-(1-(((1r,3r)-3-((8-((2-(2,6-dioxopiperidin-3-yl)-1,3-dioxoisoindolin-4-yl)amino)octyl)carbamoyl)adamantan-1-yl)methyl)-5-methyl-1H-pyrazol-4-yl)picolinic acid]",,< 10 nM
"Cc1c(-c2ccc(N3CCc4cccc(C(=O)Nc5nc6ccccc6s5)c4C3)nc2C(=O)NCCOCCOCCOCCCc2ccc3c(c2)CN(C2CCC(=O)NC2=O)C3=O)cnn1CC12CC3CC(CC(C3)C1)C2 (centres unmarked) [degrader #33, 2-(5-(1-(adamantan-1-ylmethyl)-5-methyl-1H-pyrazol-4-yl)-6-((2-(2-(2-(3-(2-(2,6-dioxopiperidin-3-yl)-1-oxoisoindolin-5-yl)propoxy)ethoxy)ethoxy)ethyl)carbamoyl)pyridin-2-yl)-N-(benzo[d]thiazol-2-yl) 1,2,3,4-tetrahydroisociuinoline-8-carboxamide]",,< 10 nM
"Cc1c(-c2ccc(N3CCc4cccc(C(=O)Nc5nc6ccccc6s5)c4C3)nc2C(=O)NCCOCCOCCOCCCc2cccc3c2C(=O)N(C2CCC(=O)NC2=O)C3=O)cnn1CC12CC3CC(CC(C3)C1)C2 (centres unmarked) [degrader #30, 2-(5-(1-(adamantan-1-ylmethyl)-5-methyl-1H-pyrazol-4-yl)-6-((2-(2-(2-(3-(2-(2,6-dioxopiperidin-3-yl)-1,3-dioxoisoindolin-4-yl)propoxy)ethoxy)ethoxy)ethyl)carbamoyl)pyridin-2-yl)-N-(benzo[d]thiazol-2-yl)-1,2,3,4-tetrahydroisociuinoline-8-carboxamide]",,< 10 nM
"Cc1ncsc1-c1ccc([C@H](C)NC(=O)[C@@H]2C[C@@H](O)CN2C(=O)[C@@H](NC(=O)CCCCCCCCCCCS(=O)(=O)NC(=O)c2nc(N3CCc4cccc(C(=O)Nc5nc6ccccc6s5)c4C3)ccc2-c2cnn(CC34CC5CC(CC(C5)C3)C4)c2C)C(C)(C)C)cc1 [degrader #17, 2-(5-(1-(adamantan-1-ylymethyl)-5-methyl-1H-pyrazol-4-yl)-6-(((12-(((S)-1-((2S,4R)-4-hydroxy-2-(((S)-1-(4-(4-methylthiazol-5-yl)phenyl)ethyl)carbamoyl)pyrrolidin-1-yl)-3,3-dimethyl-1-oxobutan-2-yl)amino)-12-oxododecyl)sulfonyl)carbamoyl)pyridin-2-yl)-N-(benzo[d]thiazol-2-yl)-1,2,3,4-tetrahydroisoquinoline-8-carboxamide]",,10 to 100 nM

# From US12441722B2, “Therapeutic agents and methods of treatment” (University of Florida Research Foundation, Incorporated, priority 2020, dated 2025)
